Tests used:
[1] = system: melanosome transfer from melanocytes to matched keratinocytes; assay: Quantitative analysis of gp100-positive melanosome transfer in melanocyte-keratinocyte co-culture; format: cell-based, human; conditions: for gp 100+ Spots/KC / % Change of Melanin Transfer vs. Basal: 24 h; for gp 100+ Spots/KC: co-culture F39, L-18 0.001%, L-19 1%, L-20 0.5%, L-21 10 μg/ml, L-22 1%, L-23 0.05 μg/ml, basal 27.3; for % Change of Melanin Transfer vs. Basal: same doses as E10
Protocol: Quantitative analysis of melanosome transfer: Fully-matched epidermal melanocytes (p4) and epidermal keratinocytes (p2) from 4 normal individuals (i.e., F39; F67; F54; F52) were maintained in 8-well Lab-Tek® chamber slides at a total cell density of 2×10^4 cells/well and in a ratio of 1 melanocyte to 10 normal keratinocytes. The co-culture was maintained for further 24 h before washing 3-times with sterile PBS before incubation with starved medium alone, or L-18 (0.001%), L-19 (1%), L-20 (0.5%), L-21 (10 μg/ml), L-22 (1%) and L-23 (0.05 μg/ml) for 12 and 72 h. Controls included IBMX (100 μM) and niacinamide (10 μM). Cells were then processed for immunofluorescence staining with gp100 to assess melanosome transfer to keratinocytes.
Evaluation of melanosome transfer was performed by counting fluorescent gp100-positive spots within recipient keratinocytes in 5 random microscopic fields per well at 100× magnification (oil-immersion) in 3 independent experiments. To avoid counting melanin granules that may still be associated with melanocytes, we only counted gp100-positive spots within keratinocytes that were not in direct contact with melanocytes.
Gp100 immunostaining provides a powerful tracking method for the global assessment of melanin transfer to keratinocytes, and for the evaluation of melanocyte phenotype modulators (Singh et al., 2008). […] In this assay melanosome transfer from melanocytes to matched keratinocytes under basal (i.e., unstimulated) conditions was determined at an average of 27.3 gp100-positive spots per keratinocyte. However, this was increased almost 4-fold after 24 h stimulation of co-cultures with IBMX to 99.5 gp100-positive spots per keratinocyte. Conversely, niacinamide reduced melanosome transfer by 28% (19.6 gp100-positive spots per keratinocyte; p<0.01; a result that correlates with its clinical use as a lightener of cutaneous pigmentation (Hakozaki et al, 2002; Greatens et al., 2005).
Means are ±SEM of 4 independent experiments with **P<0.01, ***P<0.001.

[2] = system: Normal human epidermal melanocytes (F52; p5); assay: Melanin assay (melanogenesis) in normal pigmented human melanocytes; format: cell-based; conditions: 72 h; for Changes in melanin levels, F52 EM % change: L-18 0.001%, L-19 1%, L-20 0.5%, L-21 10 μg/ml, L-22 1%, L-23 0.05 μg/ml, IBMX 100 μM, NH4Cl 100 μM, niacinamide 10 μM, vs basal; for Melanin content, F52 EM (pg/cell): same doses as E1, basal 35.63
Protocol: Cells were then washed 3-times with sterile PBS and supplemented with 350 μl of either fresh serum-free RPMI medium (melanoma cells) or starved serum-free and BPE-free melanocyte medium (EM) and incubated at 37° C. and 5% CO2 for 24 h. Cells were then washed with sterile PBS 3-times and incubated with IBMX 1×10^-4 M at 37° C. and 5% CO2 for 12, 24, and 72 h. Cells were then gently washed 3-times with sterile PBS and fixed in ice-cold methanol for 10 minutes at -20° C. Slides were stored at -20° C. until immunocytochemistry was performed. […] The melanin standards were pipetted into a 96 well plate to produce a calibration curve for the assessment of melanin content in the test samples. 400 μl of 1 M NaOH was added to each cell pellet and dissolved on a heat block (100° C.) for 15 minutes. The pellets were vortexed vigorously and the solubilized pellet was pipetted into the same 96-well plate. The optical densities of the sample were read at […] on a DYNEX REVELATION 4.02 program. Melanin content of each test sample was read from the calibration curve. […] In addition IBMX and NH4Cl (positive melanocytic modulators) and niacinamide (negative modulator) were used as controls. Visible change was not particularly evident in normal melanocyte due to their already high basal melanin levels (FIG. 1). By contrast, visible change was evident in melanoma cells basal melanin levels were low (FIG. 2). […] Normal human epidermal melanocytes (Female-52; p5) were treated for 72 h with L-18 (0.001%), L-19 (1%), L-20 (0.5%), L-21 (10 μg/ml), L-22 (1%) and L-23 (0.05 μg/ml). Controls: Melanocytic modulators: IBMX (100 μM), NH4Cl (100 μM), and niacinamide (10 μM). (A) Melanin content was determined spectro-photometrically (475 nm) after sodium hydroxide solubilise (B) Visible change was not particularly evident in these cells due to their already high basal melanin levels. Results were expressed as change in melanin content (pg/cell) compared to unstimulated control levels. Means are ±SEM of 3 independent experiments with *P<0.05, **P<0.01, ***P<0.001. NS-Not Significant

tyrosinase = assay: DOPA oxidase detection for tyrosinase activity in FM55 melanoma; format: cell-based, human; conditions: 72 h; for Changes in tyrosinase activity, FM55 % change: same doses as E5, vs basal
Protocol: The cells were prepared for SDS-PAGE and transblotted onto PVDF membranes. 70 μg of un-reduced protein extract without boiling was pipetted into the appropriate wells of 8% SDS-PAGE gels. […] The L-DOPA reaction was stopped by washing the membrane in distilled water and the membrane was scanned. […] In addition IBMX and NH4Cl (positive melanocytic modulators) and niacinamide (negative modulator) were used as controls. […] Controls: Melanocytic modulators: IBMX (100 μM), NH4Cl (100 μM), and niacinamide (10 μM.). (A) Protein extracts were electroblotted and membranes stained with L-DOPA for the estimation of tyrosinase activity. (B) Densitometric scanning of band intensities and values were expressed as the fold increase compared to unstimulated control levels. Means are ±SEM of 3 independent experiments with *P<0.05, **P<0.01, ***P<0.001.

CC(C)Cn1c(=O)n(C)c(=O)c2[nH]cnc21 [IBMX]
gp 100+ Spots/KC ([1]; IBMX 100 μM, niacinamide 10 μM): 99.5 Spots/KC | % Change of Melanin Transfer vs. Basal [1]: +264% | melanosome transfer increased, fold versus basal ([1]; 24 h stimulation of co-cultures, IBMX 100 μM): ~4 fold | Changes in melanin levels, F52 EM % change [2]: +74.57% | Melanin content, F52 EM (pg/cell) [2]: (62.2) pg/cell | Changes in tyrosinase activity, FM55 % change (tyrosinase): +141.72% | effect on tyrosinase (dopa oxidase) activity compared with basal levels (tyrosinase; FM55 melanoma cells, doses as E5): dramatic increase in dopa oxidase activity of tyrosinase

NC(=O)c1cccnc1 [niacinamide]
gp 100+ Spots/KC ([1]; IBMX 100 μM, niacinamide 10 μM): 19.6 Spots/KC | % Change of Melanin Transfer vs. Basal [1]: −28% | melanosome transfer reduced by ([1]; niacinamide 10 μM, p<0.01): 28% | Changes in melanin levels, F52 EM % change [2]: −4.01% | Melanin content, F52 EM (pg/cell) [2]: (34.2) pg/cell | Changes in tyrosinase activity, FM55 % change (tyrosinase): −3.31%

Source: patent US9668960B2, “Methods useful in studying or modulating skin or hair pigmentation, plant extracts for use in compositions and cosmetic care method” (L V M H RECHERCHE, priority 2008, dated 2017)
